System: acutely irradiated mice
Experiment: Prevention of radiation-induced mortality in mice after 8.5 Gy total body irradiation (survival analysis)
Format: in vivo, C57B1/6 male mice
Source text: Eighty-six (86) C57B1/6 male mice were randomized into 6 groups. Group 1 (n=6) served as the untreated control group (no apilimod dimesylate or radiation). Animals in Groups 2-6 (n=16/group) were exposed to an 8.5 Gy dose of total body irradiation on Day 0. Radiation was generated with a 160 kilovolt potential (18-ma) source at a focal distance of 25 cm, hardened with a 0.35 mm A1 filtration system. Irradiation targeted the total body at a rate of approximately 1.0 Gy/minute. The total radiation dose and dose rate was measured in real time with a Farmer-type ionization chamber and a Fluke 35040 ATD dosimeter. No anesthesia was used during irradiation. Animals were monitored for survival twice daily and those that lost greater than 30% of their total starting body weight were euthanized. Animals in Groups 2 through 6 were dosed with apilimod dimesylate or vehicle exactly 3 hrs prior to radiation on Day 0 via oral gavage (PO) or intraperitoneal injection (IP) as indicated in Table 1 below. All animals were given ad libitum access to acidified drinking (pH 2.8-3.0) water from Day 3 through study completion.

Cc1cccc(/C=N/Nc2cc(N3CCOCC3)nc(OCCc3ccccn3)n2)c1 [apilimod dimesylate]
percentage of surviving animals (60 mg/kg i.p. single dose 3 hrs prior to 8.5 Gy TBI, study to Day 31, vehicle 6.25%): 43.75%
median time of survival (60 mg/kg i.p. single dose 3 hrs prior to 8.5 Gy TBI, vehicle 13.5 days): 21 days
survival (survival analysis, in words) (180 mg/kg p.o. single dose 3 hrs prior to 8.5 Gy TBI, did not reach statistical significance): trend towards increased survival
survival protection (survival analysis, in words) (delivered by intraperitoneal injection, 60 mg/kg, 3 hrs prior to 8.5 Gy TBI): significant survival protection
